Results published in ChEMBL document CHEMBL4800728, “Data for DCP probe JNJ-54119936” (2021).

Assays:
[1] = molecular target: Sodium-dependent dopamine transporter (Homo sapiens) (UniProt Q01959); conditions: Compound concentration 10.0 uM
[2] = molecular target: Casein kinase I isoform epsilon (Homo sapiens) (UniProt P49674); test: CK1epsilon Invitrogen kinase panel; conditions: Compound concentration 10.0 uM
[3] = molecular target: Sigma non-opioid intracellular receptor 1 (Homo sapiens, UniProt Q99720); conditions: Compound concentration 10.0 uM
[4] = molecular target: GABA-A receptor; anion channel (Rattus norvegicus) (UniProt O09028+P15431+P18506+P18508+P19969+P20236+P23574+P23576+P28471+P28473+P30191+P62813+P63079+P63138+Q91ZM7+Q9ES14); conditions: Compound concentration 10.0 uM
[5] = molecular target: voltage-dependent K+ channel (Homo sapiens, UniProt O43525+O43526+O95259+P16389+P17658+P22001+P22459+P22460+P48547+P51787+P56696+Q03721+Q09470+Q12809+Q14003+Q14721+Q16322+Q6PIU1+Q8NCM2+Q8TAE7+Q8TDN1+Q8TDN2+Q92953+Q96KK3+Q96L42+Q96PR1+Q96RP8+Q9BQ31+Q9H252+Q9H3M0+Q9NR82+Q9NS40+Q9NSA2+Q9NZV8+Q9UIX4+Q9UJ96+Q9UK17+Q9ULD8+Q9ULS6+Q9UQ05); test: K+ channel (Volt-dependent) CEREP screen; format: protein assay; conditions: compound concentration 10 uM
[6] = molecular target: Type-1 angiotensin II receptor (Homo sapiens) (UniProt P30556); test: AT1 (h) CEREP screen; conditions: Compound concentration 10.0 uM
[7] = molecular target: Peroxisome proliferator-activated receptor gamma (Homo sapiens, UniProt P37231); test: (§1) PPARgamma In-house nuclear receptor screen
[8] = molecular target: T1, Peroxisome proliferator-activated receptor gamma (Homo sapiens) (UniProt P37231); test: as §1; conditions: Compound concentration 3.0 uM
T1 sequence (whole entry): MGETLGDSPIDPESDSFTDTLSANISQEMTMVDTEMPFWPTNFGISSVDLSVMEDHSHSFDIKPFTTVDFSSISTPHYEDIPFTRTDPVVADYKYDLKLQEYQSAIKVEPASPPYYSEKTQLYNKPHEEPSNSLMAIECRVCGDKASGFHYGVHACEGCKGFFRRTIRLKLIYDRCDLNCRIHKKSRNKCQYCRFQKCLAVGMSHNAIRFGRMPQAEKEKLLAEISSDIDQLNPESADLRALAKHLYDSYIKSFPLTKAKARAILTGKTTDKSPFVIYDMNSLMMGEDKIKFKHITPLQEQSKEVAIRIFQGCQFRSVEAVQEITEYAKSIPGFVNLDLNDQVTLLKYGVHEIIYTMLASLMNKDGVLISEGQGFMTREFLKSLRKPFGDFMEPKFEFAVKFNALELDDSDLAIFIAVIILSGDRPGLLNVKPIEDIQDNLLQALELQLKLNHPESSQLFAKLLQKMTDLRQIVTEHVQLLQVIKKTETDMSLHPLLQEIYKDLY

[9] = molecular target: C-X-C chemokine receptor type 2 (Homo sapiens) (UniProt P25025); test: CXCR2 (h) CEREP screen; conditions: Compound concentration 1.0 uM
[10] = molecular target: Sodium-dependent noradrenaline transporter (Homo sapiens) (UniProt P23975); test: norepinephrine transporter (h) CEREP screen
[11] = molecular target: Kappa-type opioid receptor (Homo sapiens) (UniProt P41145); conditions: Compound concentration 10.0 uM
[12] = molecular target: D(1A) dopamine receptor (Homo sapiens) (UniProt P21728); conditions: Compound concentration 10.0 uM
[13] = molecular target: D(1A) dopamine receptor (Homo sapiens) (UniProt P21728); test: D1 (h) CEREP screen; conditions: Compound concentration 10.0 uM
[14] = molecular target: Mu-type opioid receptor (Homo sapiens) (UniProt P35372); test: Mu (h) CEREP screen; conditions: Compound concentration 10.0 uM
[15] = molecular target: Serine/threonine-protein kinase Chk1 (Homo sapiens) (UniProt O14757); test: CHK1 Invitrogen kinase panel; conditions: Compound concentration 10.0 uM
[16] = molecular target: Tyrosine-protein kinase ZAP-70 (Homo sapiens) (UniProt P43403); test: ZAP_70 Invitrogen kinase panel; conditions: Compound concentration 10.0 uM
[17] = molecular target: Muscarinic acetylcholine receptor M3 (Homo sapiens) (UniProt P20309); test: M3 (h) CEREP screen
[18] = molecular target: D(4) dopamine receptor (Homo sapiens) (UniProt P21917); conditions: Compound concentration 10.0 uM
[19] = molecular target: 5-hydroxytryptamine receptor 6 (Homo sapiens) (UniProt P50406); test: 5-HT6 (h) CEREP screen
[20] = molecular target: C-C chemokine receptor type 1 (Homo sapiens) (UniProt P32246); test: CCR1 (h) CEREP screen; conditions: Compound concentration 1.0 uM
[21] = molecular target: T2, Oxysterols receptor LXR-beta (Homo sapiens) (UniProt P55055); test: LXRbeta Indigo Bioscience nuclear receptor screen
T2 sequence (whole entry): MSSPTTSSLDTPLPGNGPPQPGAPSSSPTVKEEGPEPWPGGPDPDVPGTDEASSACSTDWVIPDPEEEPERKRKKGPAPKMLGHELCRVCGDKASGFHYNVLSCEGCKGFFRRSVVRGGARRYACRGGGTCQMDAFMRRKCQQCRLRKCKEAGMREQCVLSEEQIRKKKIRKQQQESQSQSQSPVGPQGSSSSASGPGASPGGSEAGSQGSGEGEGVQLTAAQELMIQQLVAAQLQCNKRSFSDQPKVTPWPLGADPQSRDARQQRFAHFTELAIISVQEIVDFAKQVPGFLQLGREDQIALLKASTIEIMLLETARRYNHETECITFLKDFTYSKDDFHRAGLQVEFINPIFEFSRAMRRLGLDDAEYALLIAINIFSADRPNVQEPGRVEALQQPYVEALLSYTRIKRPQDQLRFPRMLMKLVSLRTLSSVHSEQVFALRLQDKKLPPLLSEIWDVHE

[22] = molecular target: Aurora kinase A (Homo sapiens) (UniProt O14965); test: Aurora_A Invitrogen kinase panel; conditions: Compound concentration 10.0 uM
[23] = molecular target: Muscarinic acetylcholine receptor M2 (Homo sapiens) (UniProt P08172); conditions: Compound concentration 10.0 uM
Chain of Muscarinic acetylcholine receptor M2 (Homo sapiens) (P08172 whole entry): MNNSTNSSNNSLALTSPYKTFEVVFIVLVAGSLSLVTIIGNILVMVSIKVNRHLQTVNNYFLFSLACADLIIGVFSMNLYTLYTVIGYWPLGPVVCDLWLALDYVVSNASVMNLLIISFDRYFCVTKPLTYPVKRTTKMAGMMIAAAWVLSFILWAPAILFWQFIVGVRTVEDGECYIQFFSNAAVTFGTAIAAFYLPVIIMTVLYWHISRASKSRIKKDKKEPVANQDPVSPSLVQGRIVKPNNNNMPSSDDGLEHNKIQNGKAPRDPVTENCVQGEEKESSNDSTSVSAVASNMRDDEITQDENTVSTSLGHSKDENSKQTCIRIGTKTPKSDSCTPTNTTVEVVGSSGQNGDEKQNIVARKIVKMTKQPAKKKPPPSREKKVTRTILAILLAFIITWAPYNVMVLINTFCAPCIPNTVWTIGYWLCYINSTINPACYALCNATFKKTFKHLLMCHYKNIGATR

Chain of D(1A) dopamine receptor (Homo sapiens) (P21728 whole entry): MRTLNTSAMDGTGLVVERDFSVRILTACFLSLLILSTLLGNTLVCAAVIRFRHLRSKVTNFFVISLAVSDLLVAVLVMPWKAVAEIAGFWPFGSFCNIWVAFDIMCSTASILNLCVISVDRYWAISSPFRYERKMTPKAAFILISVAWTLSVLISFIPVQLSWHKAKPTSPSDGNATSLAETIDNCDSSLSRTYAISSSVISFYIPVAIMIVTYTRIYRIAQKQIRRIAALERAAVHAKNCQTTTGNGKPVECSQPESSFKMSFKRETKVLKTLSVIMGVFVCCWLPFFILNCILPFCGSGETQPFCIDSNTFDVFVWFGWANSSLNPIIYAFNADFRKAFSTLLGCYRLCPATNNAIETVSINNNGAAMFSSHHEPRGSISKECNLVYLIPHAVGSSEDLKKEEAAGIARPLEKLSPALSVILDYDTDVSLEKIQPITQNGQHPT
Chain of 5-hydroxytryptamine receptor 6 (Homo sapiens) (P50406 whole entry): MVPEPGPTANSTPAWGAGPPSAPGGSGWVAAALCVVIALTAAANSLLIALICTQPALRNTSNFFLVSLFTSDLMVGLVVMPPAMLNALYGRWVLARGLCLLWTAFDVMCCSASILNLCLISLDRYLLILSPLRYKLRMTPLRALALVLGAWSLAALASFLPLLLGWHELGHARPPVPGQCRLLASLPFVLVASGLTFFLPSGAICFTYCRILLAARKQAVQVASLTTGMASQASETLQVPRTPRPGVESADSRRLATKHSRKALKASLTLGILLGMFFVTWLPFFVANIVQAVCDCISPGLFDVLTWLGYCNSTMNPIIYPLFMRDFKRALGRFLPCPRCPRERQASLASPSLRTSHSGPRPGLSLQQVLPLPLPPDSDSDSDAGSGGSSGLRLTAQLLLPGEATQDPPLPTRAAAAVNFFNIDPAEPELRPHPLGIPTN
Chain of Sodium-dependent noradrenaline transporter (Homo sapiens) (P23975 whole entry): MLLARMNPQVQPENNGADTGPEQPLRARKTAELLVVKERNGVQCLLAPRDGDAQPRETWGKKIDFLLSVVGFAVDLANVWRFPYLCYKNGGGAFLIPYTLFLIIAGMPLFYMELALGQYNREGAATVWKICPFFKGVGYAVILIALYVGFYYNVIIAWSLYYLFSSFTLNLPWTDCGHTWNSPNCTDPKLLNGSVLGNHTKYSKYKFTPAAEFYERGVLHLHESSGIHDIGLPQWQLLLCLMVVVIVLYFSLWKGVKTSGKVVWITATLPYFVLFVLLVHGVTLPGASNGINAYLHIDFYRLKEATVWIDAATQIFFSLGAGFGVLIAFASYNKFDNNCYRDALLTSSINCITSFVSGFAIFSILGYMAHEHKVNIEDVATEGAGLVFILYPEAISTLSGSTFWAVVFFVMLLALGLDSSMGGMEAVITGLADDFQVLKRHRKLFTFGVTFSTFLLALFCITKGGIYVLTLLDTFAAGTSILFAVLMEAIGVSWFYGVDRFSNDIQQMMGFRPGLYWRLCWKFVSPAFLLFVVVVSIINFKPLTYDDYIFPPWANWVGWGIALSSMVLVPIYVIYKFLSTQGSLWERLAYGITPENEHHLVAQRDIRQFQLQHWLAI
Chain of Muscarinic acetylcholine receptor M3 (Homo sapiens) (P20309 whole entry, looked up): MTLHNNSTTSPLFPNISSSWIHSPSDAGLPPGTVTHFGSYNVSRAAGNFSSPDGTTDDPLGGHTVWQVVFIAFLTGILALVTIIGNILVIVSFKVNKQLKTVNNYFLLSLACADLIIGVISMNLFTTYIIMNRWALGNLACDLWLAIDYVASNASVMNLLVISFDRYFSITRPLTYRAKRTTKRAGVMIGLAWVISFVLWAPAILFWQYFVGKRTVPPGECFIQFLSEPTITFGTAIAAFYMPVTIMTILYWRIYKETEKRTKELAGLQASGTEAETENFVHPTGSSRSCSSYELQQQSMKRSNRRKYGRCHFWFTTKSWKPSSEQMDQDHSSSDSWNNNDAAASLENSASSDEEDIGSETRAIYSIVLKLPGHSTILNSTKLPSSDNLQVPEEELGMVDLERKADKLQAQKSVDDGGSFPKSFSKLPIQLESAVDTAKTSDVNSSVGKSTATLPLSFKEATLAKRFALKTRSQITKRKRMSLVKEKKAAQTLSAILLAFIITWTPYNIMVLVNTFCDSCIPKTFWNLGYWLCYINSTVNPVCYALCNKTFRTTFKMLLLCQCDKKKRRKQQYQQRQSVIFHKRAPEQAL
Chain of Sodium-dependent dopamine transporter (Homo sapiens) (Q01959 whole entry, canonical isoform): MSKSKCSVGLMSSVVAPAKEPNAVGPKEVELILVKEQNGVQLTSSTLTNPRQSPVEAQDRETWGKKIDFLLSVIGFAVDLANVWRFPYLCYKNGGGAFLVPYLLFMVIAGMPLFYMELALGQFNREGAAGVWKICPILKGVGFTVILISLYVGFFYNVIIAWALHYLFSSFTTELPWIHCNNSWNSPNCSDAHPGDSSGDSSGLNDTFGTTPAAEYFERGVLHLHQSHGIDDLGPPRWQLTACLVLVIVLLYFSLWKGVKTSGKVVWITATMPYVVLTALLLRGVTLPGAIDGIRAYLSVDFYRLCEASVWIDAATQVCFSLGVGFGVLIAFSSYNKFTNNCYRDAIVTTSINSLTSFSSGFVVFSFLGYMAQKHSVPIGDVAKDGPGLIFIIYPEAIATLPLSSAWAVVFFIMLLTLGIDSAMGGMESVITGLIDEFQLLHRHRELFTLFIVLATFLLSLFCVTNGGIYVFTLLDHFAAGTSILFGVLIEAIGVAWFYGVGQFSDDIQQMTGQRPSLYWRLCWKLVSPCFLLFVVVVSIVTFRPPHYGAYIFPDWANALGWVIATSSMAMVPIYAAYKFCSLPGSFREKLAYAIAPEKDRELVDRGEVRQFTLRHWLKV
Chain of C-X-C chemokine receptor type 2 (Homo sapiens) (P25025 whole entry): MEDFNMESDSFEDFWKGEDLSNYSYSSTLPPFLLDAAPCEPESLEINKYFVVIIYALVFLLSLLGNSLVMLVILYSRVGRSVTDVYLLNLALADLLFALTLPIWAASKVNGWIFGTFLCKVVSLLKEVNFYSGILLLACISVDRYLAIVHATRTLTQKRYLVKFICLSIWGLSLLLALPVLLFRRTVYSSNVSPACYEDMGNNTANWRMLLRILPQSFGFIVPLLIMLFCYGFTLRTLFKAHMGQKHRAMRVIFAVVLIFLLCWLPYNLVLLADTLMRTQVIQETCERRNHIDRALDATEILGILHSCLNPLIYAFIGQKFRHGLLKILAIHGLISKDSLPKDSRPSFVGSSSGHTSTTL
Chain of Kappa-type opioid receptor (Homo sapiens) (P41145 whole entry): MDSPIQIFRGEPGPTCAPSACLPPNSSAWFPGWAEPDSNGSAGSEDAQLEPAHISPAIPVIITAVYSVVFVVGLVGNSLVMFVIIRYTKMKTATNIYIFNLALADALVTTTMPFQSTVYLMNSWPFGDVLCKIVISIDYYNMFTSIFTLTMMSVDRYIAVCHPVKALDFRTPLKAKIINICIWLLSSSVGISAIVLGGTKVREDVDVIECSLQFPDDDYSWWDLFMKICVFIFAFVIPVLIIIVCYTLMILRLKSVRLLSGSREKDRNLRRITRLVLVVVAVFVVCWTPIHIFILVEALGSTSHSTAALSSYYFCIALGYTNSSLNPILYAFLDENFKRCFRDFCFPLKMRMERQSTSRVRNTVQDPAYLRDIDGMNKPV
Chain of C-C chemokine receptor type 1 (Homo sapiens) (P32246 whole entry): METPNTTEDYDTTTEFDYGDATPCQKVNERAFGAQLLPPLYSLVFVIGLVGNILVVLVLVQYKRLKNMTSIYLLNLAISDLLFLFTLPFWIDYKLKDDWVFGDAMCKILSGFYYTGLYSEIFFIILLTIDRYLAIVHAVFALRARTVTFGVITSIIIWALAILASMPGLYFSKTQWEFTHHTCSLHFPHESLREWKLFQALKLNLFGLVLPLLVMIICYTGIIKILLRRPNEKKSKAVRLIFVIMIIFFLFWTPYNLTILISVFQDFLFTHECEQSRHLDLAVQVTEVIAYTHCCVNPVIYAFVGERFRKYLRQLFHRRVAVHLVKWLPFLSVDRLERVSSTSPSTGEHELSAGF
Chain of Type-1 angiotensin II receptor (Homo sapiens) (P30556 whole entry): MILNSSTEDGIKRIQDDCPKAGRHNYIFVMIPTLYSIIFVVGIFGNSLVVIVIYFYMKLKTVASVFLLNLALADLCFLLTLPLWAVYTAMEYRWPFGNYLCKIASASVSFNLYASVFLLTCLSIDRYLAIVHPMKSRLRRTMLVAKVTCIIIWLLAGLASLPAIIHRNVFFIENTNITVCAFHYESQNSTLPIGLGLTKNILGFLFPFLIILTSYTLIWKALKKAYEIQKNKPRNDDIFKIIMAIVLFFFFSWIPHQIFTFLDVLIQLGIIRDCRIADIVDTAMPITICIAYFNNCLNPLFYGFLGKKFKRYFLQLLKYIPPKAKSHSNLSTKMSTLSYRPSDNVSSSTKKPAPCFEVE
Chain of Sigma non-opioid intracellular receptor 1 (Q99720 whole entry): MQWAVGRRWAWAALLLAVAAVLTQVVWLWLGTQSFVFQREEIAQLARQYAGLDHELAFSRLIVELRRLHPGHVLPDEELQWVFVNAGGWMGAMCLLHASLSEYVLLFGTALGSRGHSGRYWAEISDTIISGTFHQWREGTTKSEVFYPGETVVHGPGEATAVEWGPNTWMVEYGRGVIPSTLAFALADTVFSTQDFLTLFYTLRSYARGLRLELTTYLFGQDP

inhibition [1]: 21%
inhibition [2]: 0%
inhibition [3]: 102%
inhibition [4]: 10.3%
inhibition at 10 µM [5]: 15% (not active)
inhibition [6]: 11%
IC50 [7]: 5.4 µM
inhibition [8]: 28.2%
inhibition [9]: 10%
inhibition ([10]; Compound concentration 1.0 uM): 34%
inhibition ([10]; Compound concentration 10.0 uM): 16%
inhibition [11]: -6%
inhibition [12]: 19.9%
inhibition [13]: 16%
inhibition [14]: 15%
inhibition [15]: 2%
inhibition [16]: 5%
inhibition ([17]; Compound concentration 1.0 uM): 21%
inhibition ([17]; Compound concentration 10.0 uM): 19%
inhibition [18]: -5.45%
inhibition ([19]; Compound concentration 1.0 uM): 20%
inhibition ([19]; Compound concentration 10.0 uM): 22%
inhibition [20]: 17%
inhibition ([21]; Compound concentration 0.3 uM): 5.39%
inhibition ([21]; Compound concentration 1.0 uM): 8.98%
inhibition ([21]; Compound concentration 3.0 uM): 11%
inhibition [22]: 9%
inhibition [23]: 1.16%
Structure (SMILES): COc1nc2ccc([C@@](O)(c3ccccc3)C3CCN(C(C)=O)CC3)cc2c(Cl)c1Cc1ccc(-n2cccn2)cc1 [JNJ-54119936]
